The NIST ThermoML archive (doi:10.1016/j.jct.2012.03.013)
Numbers after ± are expanded uncertainties.

Experiments:
[1] = Liquid; for speed of sound: Pulse-echo method
[2] = molar heat capacity at constant pressure; conditions: Liquid, Acoustic Method
[3] = refractive index (Na D-line) (dimensionless); conditions: 298.15 K; 101.33 kPa; Liquid; Standard Abbe refractometry

OCCCCO [1,4-butanediol]
[1]
Conditions | mass density [kg/m3]
293.15 K, 100 kPa, Acoustic method | 1015.74 ± 0.13
293.15 K, 101.33 kPa, Vibrating tube method | 1015.74 ± 0.13
298.15 K, 100 kPa, Acoustic method | 1012.78 ± 0.13
298.15 K, 101.33 kPa, Vibrating tube method | 1012.78 ± 0.13
298.15 K, 10000 kPa, Acoustic method | 1016.99 ± 0.13
298.15 K, 20000 kPa, Acoustic method | 1021.1 ± 0.13
298.15 K, 30000 kPa, Acoustic method | 1025.06 ± 0.13
298.15 K, 40000 kPa, Acoustic method | 1028.89 ± 0.13
303.14 K, 101.33 kPa, Vibrating tube method | 1009.78 ± 0.13
303.15 K, 100 kPa, Acoustic method | 1009.77 ± 0.13
303.15 K, 10000 kPa, Acoustic method | 1014.06 ± 0.13
303.15 K, 20000 kPa, Acoustic method | 1018.23 ± 0.13
303.15 K, 30000 kPa, Acoustic method | 1022.25 ± 0.13
303.15 K, 40000 kPa, Acoustic method | 1026.13 ± 0.13
303.15 K, 50000 kPa, Acoustic method | 1029.88 ± 0.14
303.15 K, 60000 kPa, Acoustic method | 1033.51 ± 0.14
303.15 K, 70000 kPa, Acoustic method | 1037.04 ± 0.14
303.15 K, 80000 kPa, Acoustic method | 1040.47 ± 0.15
303.15 K, 90000 kPa, Acoustic method | 1043.8 ± 0.15
308.15 K, 100 kPa, Acoustic method | 1006.76 ± 0.13
308.15 K, 101.33 kPa, Vibrating tube method | 1006.76 ± 0.13
308.15 K, 10000 kPa, Acoustic method | 1011.12 ± 0.13
308.15 K, 20000 kPa, Acoustic method | 1015.35 ± 0.13
308.15 K, 30000 kPa, Acoustic method | 1019.42 ± 0.13
308.15 K, 40000 kPa, Acoustic method | 1023.35 ± 0.13
308.15 K, 50000 kPa, Acoustic method | 1027.15 ± 0.14
308.15 K, 60000 kPa, Acoustic method | 1030.83 ± 0.14
308.15 K, 70000 kPa, Acoustic method | 1034.41 ± 0.14
308.15 K, 80000 kPa, Acoustic method | 1037.87 ± 0.15
308.15 K, 90000 kPa, Acoustic method | 1041.25 ± 0.15
308.15 K, 100000 kPa, Acoustic method | 1044.53 ± 0.16
313.14 K, 101.33 kPa, Vibrating tube method | 1003.72 ± 0.13
313.15 K, 100 kPa, Acoustic method | 1003.73 ± 0.13
313.15 K, 10000 kPa, Acoustic method | 1008.15 ± 0.13
313.15 K, 20000 kPa, Acoustic method | 1012.44 ± 0.13
313.15 K, 30000 kPa, Acoustic method | 1016.57 ± 0.13
313.15 K, 40000 kPa, Acoustic method | 1020.56 ± 0.13
313.15 K, 50000 kPa, Acoustic method | 1024.41 ± 0.14
313.15 K, 60000 kPa, Acoustic method | 1028.14 ± 0.14
313.15 K, 70000 kPa, Acoustic method | 1031.76 ± 0.14
313.15 K, 80000 kPa, Acoustic method | 1035.27 ± 0.15
313.15 K, 90000 kPa, Acoustic method | 1038.68 ± 0.15
313.15 K, 100000 kPa, Acoustic method | 1042 ± 0.16
318.15 K, 100 kPa, Acoustic method | 1000.67 ± 0.13
318.15 K, 101.33 kPa, Vibrating tube method | 1000.67 ± 0.13
318.15 K, 10000 kPa, Acoustic method | 1005.17 ± 0.13
318.15 K, 20000 kPa, Acoustic method | 1009.52 ± 0.13
318.15 K, 30000 kPa, Acoustic method | 1013.71 ± 0.13
318.15 K, 40000 kPa, Acoustic method | 1017.75 ± 0.13
318.15 K, 50000 kPa, Acoustic method | 1021.65 ± 0.14
318.15 K, 60000 kPa, Acoustic method | 1025.43 ± 0.14
318.15 K, 70000 kPa, Acoustic method | 1029.09 ± 0.14
318.15 K, 80000 kPa, Acoustic method | 1032.64 ± 0.15
318.15 K, 90000 kPa, Acoustic method | 1036.09 ± 0.15
318.15 K, 100000 kPa, Acoustic method | 1039.45 ± 0.16
323.15 K, 101.33 kPa, Vibrating tube method | 997.61 ± 0.13
328.15 K, 101.33 kPa, Vibrating tube method | 994.53 ± 0.13
333.15 K, 101.33 kPa, Vibrating tube method | 991.44 ± 0.13
338.15 K, 101.33 kPa, Vibrating tube method | 988.31 ± 0.13
343.14 K, 101.33 kPa, Vibrating tube method | 985.17 ± 0.13
348.15 K, 101.33 kPa, Vibrating tube method | 982.01 ± 0.13
353.15 K, 101.33 kPa, Vibrating tube method | 978.82 ± 0.13

Conditions | molar heat capacity at constant pressure [J/K/mol] | speed of sound [m/s]
[1], 298.07 K, 15200 kPa | – | 1649.2 ± 1.4
[1], 298.07 K, 30390 kPa | – | 1693.3 ± 1.4
[1], 298.08 K, 45590 kPa | – | 1735.4 ± 1.4
[1], 298.11 K, 100 kPa | – | 1602.1 ± 1.3
[1], 298.15 K, 101.33 kPa | – | 1601.8 ± 1.3
[1], 303.15 K, 101.33 kPa | – | 1589.9 ± 1.3
[1], 303.15 K, 60790 kPa | – | 1763.6 ± 1.4
[1], 303.15 K, 70920 kPa | – | 1789.3 ± 1.5
[1], 303.15 K, 75990 kPa | – | 1801.9 ± 1.5
[1], 303.15 K, 91180 kPa | – | 1837.8 ± 1.5
[1], 303.16 K, 30390 kPa | – | 1682.4 ± 1.4
[1], 303.16 K, 45590 kPa | – | 1724.1 ± 1.4
[1], 303.16 K, 50660 kPa | – | 1738 ± 1.4
[1], 303.17 K, 100 kPa | – | 1590.2 ± 1.3
[1], 303.17 K, 15200 kPa | – | 1637.6 ± 1.4
[1], 308.14 K, 15200 kPa | – | 1626.6 ± 1.4
[1], 308.14 K, 30390 kPa | – | 1671.6 ± 1.4
[1], 308.14 K, 45590 kPa | – | 1713.7 ± 1.4
[1], 308.14 K, 75990 kPa | – | 1792 ± 1.5
[1], 308.14 K, 91180 kPa | – | 1828.2 ± 1.5
[1], 308.14 K, 101320 kPa | – | 1851.7 ± 1.6
[1], 308.15 K, 100 kPa | – | 1578.4 ± 1.3
[1], 308.15 K, 101.33 kPa | – | 1578.5 ± 1.3
[1], 308.15 K, 60790 kPa | – | 1753.3 ± 1.4
[1], 313.09 K, 15200 kPa | – | 1614.6 ± 1.4
[1], 313.09 K, 30390 kPa | – | 1660.5 ± 1.4
[1], 313.1 K, 45590 kPa | – | 1703 ± 1.4
[1], 313.1 K, 60790 kPa | – | 1743.5 ± 1.4
[1], 313.1 K, 75990 kPa | – | 1782 ± 1.5
[1], 313.1 K, 91180 kPa | – | 1819 ± 1.5
[1], 313.1 K, 101320 kPa | – | 1842.1 ± 1.6
[1], 313.12 K, 100 kPa | – | 1567 ± 1.3
[1], 313.15 K, 101.33 kPa | – | 1566.7 ± 1.3
[1], 318.15 K, 101.33 kPa | – | 1555.2 ± 1.3
[1], 318.17 K, 30390 kPa | – | 1649.8 ± 1.4
[1], 318.17 K, 45590 kPa | – | 1692.6 ± 1.4
[1], 318.17 K, 60790 kPa | – | 1733.4 ± 1.4
[1], 318.17 K, 75990 kPa | – | 1772 ± 1.5
[1], 318.18 K, 15200 kPa | – | 1603.3 ± 1.4
[1], 318.18 K, 91180 kPa | – | 1809.4 ± 1.5
[1], 318.18 K, 101320 kPa | – | 1832.7 ± 1.6
[1], 318.2 K, 100 kPa | – | 1555.3 ± 1.3
[2], 298.15 K, 10000 kPa | 202.7 ± 0.1 | –
[2], 298.15 K, 20000 kPa | 202.4 ± 0.1 | –
[2], 298.15 K, 30000 kPa | 202 ± 0.1 | –
[2], 298.15 K, 40000 kPa | 201.7 ± 0.1 | –
[2], 303.15 K, 10000 kPa | 205.5 ± 0.1 | –
[2], 303.15 K, 20000 kPa | 205.1 ± 0.1 | –
[2], 303.15 K, 30000 kPa | 204.7 ± 0.1 | –
[2], 303.15 K, 40000 kPa | 204.4 ± 0.1 | –
[2], 303.15 K, 50000 kPa | 204.1 ± 0.1 | –
[2], 303.15 K, 60000 kPa | 203.8 ± 0.1 | –
[2], 303.15 K, 70000 kPa | 203.5 ± 0.1 | –
[2], 303.15 K, 80000 kPa | 203.2 ± 0.1 | –
[2], 303.15 K, 90000 kPa | 202.9 ± 0.1 | –
[2], 308.15 K, 10000 kPa | 208.3 ± 0.1 | –
[2], 308.15 K, 20000 kPa | 207.9 ± 0.1 | –
[2], 308.15 K, 30000 kPa | 207.6 ± 0.1 | –
[2], 308.15 K, 40000 kPa | 207.2 ± 0.1 | –
[2], 308.15 K, 50000 kPa | 206.9 ± 0.1 | –
[2], 308.15 K, 60000 kPa | 206.6 ± 0.1 | –
[2], 308.15 K, 70000 kPa | 206.3 ± 0.1 | –
[2], 308.15 K, 80000 kPa | 206 ± 0.1 | –
[2], 308.15 K, 90000 kPa | 205.7 ± 0.1 | –
[2], 308.15 K, 100000 kPa | 205.4 ± 0.1 | –
[2], 313.15 K, 10000 kPa | 211.2 ± 0.1 | –
[2], 313.15 K, 20000 kPa | 210.8 ± 0.1 | –
[2], 313.15 K, 30000 kPa | 210.4 ± 0.1 | –
[2], 313.15 K, 40000 kPa | 210.1 ± 0.1 | –
[2], 313.15 K, 50000 kPa | 209.7 ± 0.1 | –
[2], 313.15 K, 60000 kPa | 209.4 ± 0.1 | –
[2], 313.15 K, 70000 kPa | 209.1 ± 0.1 | –
[2], 313.15 K, 80000 kPa | 208.8 ± 0.1 | –
[2], 313.15 K, 90000 kPa | 208.5 ± 0.1 | –
[2], 313.15 K, 100000 kPa | 208.2 ± 0.1 | –
[2], 318.15 K, 10000 kPa | 214.2 ± 0.1 | –
[2], 318.15 K, 20000 kPa | 213.8 ± 0.1 | –
[2], 318.15 K, 30000 kPa | 213.4 ± 0.1 | –
[2], 318.15 K, 40000 kPa | 213 ± 0.1 | –
[2], 318.15 K, 50000 kPa | 212.7 ± 0.1 | –
[2], 318.15 K, 60000 kPa | 212.3 ± 0.1 | –
[2], 318.15 K, 70000 kPa | 212 ± 0.1 | –
[2], 318.15 K, 80000 kPa | 211.7 ± 0.1 | –
[2], 318.15 K, 90000 kPa | 211.4 ± 0.1 | –
[2], 318.15 K, 100000 kPa | 211.1 ± 0.1 | –

Conditions | refractive index
[3] | 1.4447 ± 0.0008
